Measured values published in patent US4952408A, “Liposome-encapsulated vinca alkaloids and their use in combatting tumors” (priority 1988, dated 1990).
Values after ≈ are worked out from the molar mass of the structure shown. Read-outs that look alike come from different tables or passages of the source.

Key:
[1] = lethal toxicity in normal mice after single i.v. injection; format: in vivo, CD2 F1 mice
L1210 Leukemia cells = assay: in vitro cytotoxicity against L1210 leukemia cells (trypan blue exclusion); format: cell-based; settings: Mus musculus; L1210 murine leukemia cells; 24 h treatment at 37° C., counted at 48 and 72 hours
Experimental: L1210 Leukemia cells were grown in suspension in air with 5% CO2 in RPMI Medium 1640 supplemented with 10% fetal calf serum and gentamicin (50 μg/ml). Log phase cells (10 ml) at an innoculum of 1×10^5 cells/ml of medium in 25 cm^2 plastic flasks were treated with either free vincristine or liposomal entrapped vincristine at different doses for 24 hours at 37° C. After drug treatment, cells were transferred to Falcon tubes and centrifuged for 10 minutes at 600 rpm. The supernatant media were discarded and the cell pellet was washed 3 times with RPMI Media 1640. The final cell pellet was resuspended in 10 ml of RPMI media and transferred to 25 cm^2 plastic flasks and incubated at 37° C. in air with 5% CO2 for growth. At 48 and 72 hours, an aliquot of cells from each flask were taken and were counted for viability by trypan blue exclusion under microscope. The number of cells proliferating in each flask were determined with respect to control. FIG. 3 represents the percent survival of cells when treated with free vincristine or vincristine entrapped in liposomes.

[2] = plasma pharmacokinetics of free and liposomal vincristine (radioimmunoassay); format: in vivo, CD2 F1 mice
Experimental: (§1) CD2 F1 mice were administered vincristine as a free drug at a dose of 1 mg kg^-1 and liposomal entrapped vincristine at a dose of 1 mg kg^-1 and 5 mg kg^-1 via a lateral tail vein. At sequential time points, four mice in each treatment group were sacrificed and specific tissues were isolated and assayed for drug levels by radioimmunoassay as adapted in our laboratories.

[3] = tested on: non-Hodgkin's and Hodgkins lymphomas, acute lymphoblastic leukemia, Wilm's tumor, rhabdomyosarcoma, and neuroblastoma; settings: in vivo; cited from earlier work
[4] = tissue drug levels of free and liposomal vincristine (radioimmunoassay); format: in vivo, CD2 F1 mice; settings: for concentration at 5 min / concentration at 0.25 h / concentration at 0.5 h / concentration at 1 h / concentration at 2 h / concentration at 4 h / concentration at 8 h / concentration at 24 h: mouse, iv, 1 mg/kg; for concentration at 0.25 h: 15'; for concentration at 0.5 h: 30'
Experimental: as §1

[5] = total doses in excess of 2 mg; cited from earlier work
L1210 Leukemia = assay: antitumor evaluation against L1210 leukemia in mice; format: in vivo, CD2 F1 mice; settings: for % ILS (percentage of increase in life span) / Long Term Survivors (50 days) / Median Survival: single dose
Experimental: The L1210 leukemia was maintained by serial passage i.p. in DBA/2F1 female mice. For antitumor studies, 2×10^5 cells of L1210 leukemia were implanted i.p. in CD2 F1 male mice (22-25 g). […] Each drug treated group and saline treated leukemic control group was composed of eight mice. […] Data are expressed as % of ILS (percentage of increase in life span). Median life spans were calculated from grouped median survival times and % of increase in life was calculated as: [formula] Experiments were terminated on day 50. Mice alive on that day were termed "cures" and were included in the calculation of median survival time of treated mice. The saline treated or blank liposomes treated controls had the median survival of 11 days. Free vincristine at a dose of 2 mg kg^-1 provided a median survival of 14.5 days with a % ILS of 32 with 2/8 long-term survivals. […] In contrast, the doses of vincristine entrapped in liposomes provided a much higher therapeutic response in mice bearing L1210 leukemia. […] In addition, higher doses of vincristine administered in liposomes produced significant therapeutic response with majority of leukemia bearing mice surviving at day 50.
CD2 F1 mice were implanted intraperitoneally with 2 ×
10^5 leukemia cells and drug treatment was given intravenously on day

[6] = brain, brain, 1.0 mg, read-out: vincristine level, brain
[7] = kidney, kidney, 1.0 mg, read-out: vincristine level, kidney
[8] = liver, liver, 1.0 mg, read-out: vincristine level, liver
[9] = lung, lung, 1.0 mg, read-out: vincristine level, lung
[10] = spleen, spleen, 1.0 mg, read-out: vincristine level, spleen

SMILES: CC[C@]1(O)C[C@H]2CN(CCc3c([nH]c4ccccc34)[C@@](C(=O)OC)(c3cc4c(cc3OC)N(C=O)[C@H]3[C@@](O)(C(=O)OC)[C@H](OC(C)=O)[C@]5(CC)C=CCN6CC[C@]43[C@@H]65)C2)C1 [free vincristine, vincristine]
- lethality ([1]; 2 mg kg^-1 i.v., to day 60): without any lethality
- mortality at 192 h ([1]; mouse, in vivo, iv, 3 mg kg^-1 i.v., read-out: mice dead by day 8): 90%
- IC50 (L1210 Leukemia cells): 4 ng/mL (≈ 4.85 nM)
- apparent volume of distribution ([2]; i.v.): apparent large volume of distribution
- clearance of drug from plasma ([2]; i.v.): much faster clearance of drug from plasma
- concentration at 5 min ([2]; mouse, iv, 1 mg/kg, plasma, 1.0 mg, 5', read-out: plasma level): 630 ng/mL
- concentration at 0.25 h ([2]; mouse, iv, 1 mg/kg, plasma, 1.0 mg, 15', read-out: plasma level): 600 ng/mL
- concentration at 0.5 h ([2]; mouse, iv, 1 mg/kg, plasma, 1.0 mg, 30', read-out: plasma level): 200 ng/mL
- concentration at 1 h ([2]; mouse, iv, 1 mg/kg, plasma, 1.0 mg, 1h, read-out: plasma level): 100 ng/mL
- concentration at 2 h ([2]; mouse, iv, 1 mg/kg, plasma, 1.0 mg, 2h, read-out: plasma level): 50 ng/mL
- Cmax at 5 min ([2]; mouse, plasma, iv, 1 mg kg^-1 i.v., 5 minutes, read-out: peak plasma level at 5 minutes): 620 ng/mL
- antitumor activity [3]: substantial activity
- levels of drug in brain, free compared with liposomal vincristine ([4]; brain, 1 or 5 mg kg^-1 liposomal): higher than liposomal vincristine
- drug level in liver ([4]; liver, 1 mg kg^-1, 8 hours): undetectable
- levels in lung, free compared with liposomal vincristine ([4]; lung, 1 mg kg^-1, different periods): comparable
- concentration at 5 min [4, 6]: 28 ng/g
- concentration at 0.25 h [4, 6]: 21 ng/g
- concentration at 0.5 h [4, 6]: 20 ng/g
- concentration at 1 h [4, 6]: 21 ng/g
- concentration at 2 h ([4]; brain, brain, 1.0 mg, 2h, read-out: vincristine level, brain): 21 ng/g
- concentration at 4 h [4, 6]: 29 ng/g
- concentration at 8 h [4, 6]: 29 ng/g
- concentration at 24 h [4, 6]: 19 ng/g
- concentration at 5 min [4, 7]: 65 ng/g
- concentration at 0.25 h [4, 7]: 64 ng/g
- concentration at 0.5 h [4, 7]: 62 ng/g
- concentration at 1 h [4, 7]: 47 ng/g
- concentration at 2 h ([4]; kidney, kidney, 1.0 mg, 2h, read-out: vincristine level, kidney): 47 ng/g
- concentration at 4 h [4, 7]: 20 ng/g
- concentration at 8 h [4, 7]: 18 ng/g
- concentration at 24 h [4, 7]: 2 ng/g
- concentration at 2 h ([4]; liver, liver, 1 mg kg^-1, 2 hours, read-out: drug level in liver): 50 ng/g
- concentration at 5 min [4, 8]: 200 ng/g
- concentration at 0.25 h [4, 8]: 161 ng/g
- concentration at 0.5 h [4, 8]: 121 ng/g
- concentration at 1 h [4, 8]: 84 ng/g
- concentration at 2 h ([4]; liver, liver, 1.0 mg, 2h, read-out: vincristine level, liver): 47 ng/g
- concentration at 4 h [4, 8]: 10 ng/g
- concentration at 5 min [4, 9]: 80 ng/g
- concentration at 0.25 h [4, 9]: 78 ng/g
- concentration at 0.5 h [4, 9]: 80 ng/g
- concentration at 1 h [4, 9]: 75 ng/g
- concentration at 2 h ([4]; lung, lung, 1.0 mg, 2h, read-out: vincristine level, lung): 77 ng/g
- concentration at 4 h [4, 9]: 64 ng/g
- concentration at 8 h [4, 9]: 58 ng/g
- concentration at 24 h [4, 9]: 4 ng/g
- concentration at 5 min [4, 10]: 83 ng/g
- concentration at 0.25 h [4, 10]: 84 ng/g
- concentration at 0.5 h [4, 10]: 72 ng/g
- concentration at 1 h [4, 10]: 86 ng/g
- concentration at 2 h ([4]; spleen, spleen, 1.0 mg, 2h, read-out: vincristine level, spleen): 112 ng/g
- concentration at 4 h [4, 10]: 112 ng/g
- concentration at 8 h [4, 10]: 61 ng/g
- concentration at 24 h [4, 10]: 43 ng/g
- neurotoxicity [5]: often associated with a progressive and disabling neurotoxicity
- % ILS (percentage of increase in life span) (L1210 Leukemia; 2.0 mg/kg i.v.): 32%
- Long Term Survivors (50 days) (L1210 Leukemia; 2.0 mg/kg i.v.): 2/8
- Median Survival (L1210 Leukemia; 2.0 mg/kg i.v.): 14.5 days
- death of tumor bearing mice (drug toxicity) (L1210 Leukemia; 3 mg kg^-1 i.v.): All the animals in this group were dead by day 10
- % ILS (percentage of increase in life span) (L1210 Leukemia; 3.0 mg/kg i.v.): -32%
- Long Term Survivors (50 days) (L1210 Leukemia; 3.0 mg/kg i.v.): 0/8
- Median Survival (L1210 Leukemia; 3.0 mg/kg i.v.): 7.5 days
